Where a name gives a salt, the structure may show the parent alone.
What was measured:
Type in all cases: physicochemical
[1] = Hygroscopicity, dynamic moisture adsorption (DVS) test; conditions: for Moisture adsorption rate: DVS, 25° C., 80% RH; for Change of crystal form, yes/no: before and after the DVS test
Experimental: 5. Dynamic moisture adsorption (DVS):
Dynamic moisture adsorption (DVS) curves were collected on DVS Intrinsic of Surface Measurement Systems (SMS). The relative humidity at 25° C. was corrected with the deliquescent points of LiCl, Mg (NO3) 2 and KCl.
Five crystalline salts were subject to DVS test (25° C., 80% RH).

[2] = Assessment of pH solubility of crystalline salts in buffers
Experimental: 1) Assessment of pH Solubility The solubility of crystal form B of hydrochloride, crystal form C of p-toluenesulfonate, crystal form C of sulfate, and crystal form C of hydrobromide under different pH conditions were determined and compared, and the results were shown in Table 8. All the crystalline salts had low solubility in buffers of pH 3.0 and 5.0.

[3] = Assessment of solid stability (XRPD and HPLC after storage); conditions: for Change of crystal form, yes/no: XRPD after 40° C./100% RH/7 d; for HPLC (area %) 40° C./100% RH/7 d: after 40° C./100% RH for 1 week; for HPLC (area %) Initiation: initial, before storage; for Stability relative to OAD2 dihydrochloride (in words): summary statement
Experimental: The stability of crystal form B of hydrochloride, crystal form C of sulfate, crystal form C of p-toluenesulfonate and compound I was compared. After placement under a 40° C./100% RH condition for 1 week, physical and chemical stability was assessed by means of XRPD and HPLC, respectively, and the results were shown in Table 10.

| Moisture adsorption rate [1] [%] | Change of crystal form, yes/no [1] | Solubility ([2]; pH 1.0) [µg/mL] | Solubility ([2]; pH 2.0) [µg/mL] | Solubility ([2]; pH 3.0) [µg/mL] | Solubility ([2]; pH 5.0) [µg/mL] | Solubility ([2]; pH 7.0) [µg/mL] | Change of crystal form, yes/no [3] | HPLC (area %) 40° C./100% RH/7 d [3] [area %] | HPLC (area %) Initiation [3] [area %] | Solid stability (in words) ([3]; 40° C./100% RH, 1 week) | Moisture adsorption rate ([1]; dihydrochloride) [%] | Structure (SMILES) | Stability relative to OAD2 dihydrochloride (in words) [3] | Solubility compared with other crystalline salts (in words) ([2]; buffer of pH 1.0) |
| --- | --- | --- | --- | --- | --- | --- | --- | --- | --- | --- | --- | --- | --- | --- |
| 0.8 | No | 381 | 17 | 2 | 1 | 109 | No | 98.18 | 98.37 |  |  | CC[C@@H](c1ccccc1)N1Cc2cc3c(cc2C[C@H]1C(=O)N[C@@H](Cc1ccc(-c2ccnc(C)c2C)cc1)C(=O)O)OC[C@H](c1ccc(OCc2ccc(Cl)c(Cl)c2)cc1)O3 [Crystal form B of hydrochloride, (S)-2-(3S,8S)-3-(4-(3,4-dichlorobenzyloxy)phenyl-7-((S)-1-phenylpropyl)-2,3,6,7,8,9-hexahydro-[1,4]-dioxino[2,3-g]isoquinolin-8-ylformylamino)-3-(4-(2,3-dimethylpyridin-4-yl)phenyl)propionic acid] | superior stability relative to OAD2 dihydrochloride |  |
| 1.4 | No | 496 | 16 | 1 | 4 | 39 |  |  |  |  |  | CC[C@@H](c1ccccc1)N1Cc2cc3c(cc2C[C@H]1C(=O)N[C@@H](Cc1ccc(-c2ccnc(C)c2C)cc1)C(=O)O)OC[C@H](c1ccc(OCc2ccc(Cl)c(Cl)c2)cc1)O3 [Crystal form C of hydrobromide, (S)-2-(3S,8S)-3-(4-(3,4-dichlorobenzyloxy)phenyl-7-((S)-1-phenylpropyl)-2,3,6,7,8,9-hexahydro-[1,4]-dioxino[2,3-g]isoquinolin-8-ylformylamino)-3-(4-(2,3-dimethylpyridin-4-yl)phenyl)propionic acid] |  |  |
| 0.6 | No | 1423 | 118 | 1 | 1 | 93 | No | 98.87 | 98.85 | the best stability |  | CC[C@@H](c1ccccc1)N1Cc2cc3c(cc2C[C@H]1C(=O)N[C@@H](Cc1ccc(-c2ccnc(C)c2C)cc1)C(=O)O)OC[C@H](c1ccc(OCc2ccc(Cl)c(Cl)c2)cc1)O3 [Crystal form C of p-toluenesulfonate, (S)-2-(3S,8S)-3-(4-(3,4-dichlorobenzyloxy)phenyl-7-((S)-1-phenylpropyl)-2,3,6,7,8,9-hexahydro-[1,4]-dioxino[2,3-g]isoquinolin-8-ylformylamino)-3-(4-(2,3-dimethylpyridin-4-yl)phenyl)propionic acid] | superior stability relative to OAD2 dihydrochloride | significantly higher solubility than other crystalline salts |
| 3.2 | No | 811 | 74 | 1 | 1 | 96 | No | 98.78 | 98.85 |  |  | CC[C@@H](c1ccccc1)N1Cc2cc3c(cc2C[C@H]1C(=O)N[C@@H](Cc1ccc(-c2ccnc(C)c2C)cc1)C(=O)O)OC[C@H](c1ccc(OCc2ccc(Cl)c(Cl)c2)cc1)O3 [Crystal form C of sulfate, (S)-2-(3S,8S)-3-(4-(3,4-dichlorobenzyloxy)phenyl-7-((S)-1-phenylpropyl)-2,3,6,7,8,9-hexahydro-[1,4]-dioxino[2,3-g]isoquinolin-8-ylformylamino)-3-(4-(2,3-dimethylpyridin-4-yl)phenyl)propionic acid] | superior stability relative to OAD2 dihydrochloride |  |
|  |  |  |  |  |  |  |  |  |  |  | 8.3 | CC[C@@H](c1ccccc1)N1Cc2cc3c(cc2C[C@H]1C(=O)N[C@@H](Cc1ccc(-c2ccnc(C)c2C)cc1)C(=O)O)OC[C@H](c1ccc(OCc2ccc(Cl)c(Cl)c2)cc1)O3 [OAD2 dihydrochloride, (S)-2-(3S,8S)-3-(4-(3,4-dichlorobenzyloxy)phenyl-7-((S)-1-phenylpropyl)-2,3,6,7,8,9-hexahydro-[1,4]-dioxino[2,3-g]isoquinolin-8-ylformylamino)-3-(4-(2,3-dimethylpyridin-4-yl)phenyl)propionic acid dihydrochloride, reference compound] |  |  |

From patent US12421245B2, “Pharmaceutically acceptable acid salt of free base of GLP1 receptor agonist, and preparation method therefor” (Hangzhou Zhongmei Huadong Pharmaceutical Co., Ltd., priority 2020, dated 2025)
